By Kd is commonly meant the free concentration of one partner at which half of the binding sites on the other are occupied at equilibrium, for simple one-to-one binding.

Activity calls are given as the source filed them. The rule behind the calls is not given here.

Common to all, as to assay type: nucleic-acid assay
The target of assay [1] is Nucleic Acid. Nature of the assay: Binding affinity to 3'-dangling end of RNA1 ligand binding site 2 by isothermal titration calorimetry. For orientation: Isothermal titration calorimetry measures the heat released or taken up as one component is titrated into another.
Assay [2] deals with Nucleic Acid. Kind of assay: Binding affinity to 3'-dangling end of RNA1 by fluorescence spectroscopy analysis in presence of Triton X-100.
For assay [3], the system named is Nucleic Acid. Nature of the assay: Binding affinity to 3'-dangling end of RNA1 by UV reverse titration method.
Assay [4] deals with Nucleic Acid. Nature of the assay: Binding affinity to 3'-dangling end of RNA1 by fluorescence spectroscopy analysis in absence of Triton X-100.
Assay [5] has as its target Nucleic Acid. Nature of the assay: Binding affinity to 3'-dangling end of RNA1 ligand binding site 1 by isothermal titration calorimetry.
The target of assay [6] is Nucleic Acid. Nature of the assay: Binding affinity to 3'-dangling end of RNA1 ligand binding site 4 by isothermal titration calorimetry.
Assay [7] has as its target Nucleic Acid. Kind of assay: Binding affinity to 3'-dangling end of RNA1 ligand binding site 3 by isothermal titration calorimetry.
For assay [8], the system named is Nucleic Acid. Nature of the assay: Binding affinity to 3'-dangling end of RNA1 at 7.5 to 50 uM by CD spectroscopy.

As for `OC(CNc1ccnc2cc(Cl)ccc12)CNc1ccnc2cc(Cl)ccc12`, the Kd in assay [1] was 9.2 µM; in assay [2], 12 µM; in assay [4], 8.2 µM; in assay [5], 10.8 µM; in assay [6], 12.5 µM; in assay [7], 8.1 µM. In addition, the outcome in assay [3] and in assay [8] was Active.

Values taken from ChEMBL document CHEMBL1157118, “Cooperative binding of a quinoline derivative to an RNA stem loop containing a dangling end” (Bioorg Med Chem Lett, 2010).
